Here are results for two substances from US5674837A, “Stable bleomycin sulfate solution suitable for injection” (Abbott Laboratories, priority 1994, dated 1997).

Read-outs that look alike come from different tables or passages of the source.

The conditions of data set [1]: cited from earlier work.
The test system of the next data set is Mycobacterium smegmatis. Briefly: Storage stability of bleomycin sulfate solutions, potency by microbial agar diffusion assay. The format is physicochemical. More on the design: first-order degradation rate constant k: unit not given here. The note with it: for % of Initial Drug Remaining (Potency): 3 U/mL in SWFI, RT. The method, then: As used herein, "stable" or "stabilizing" refers to the retention of potency of a bleomycin solution in the range of about 90-120% of its initial starting potency. Potency refers to the amount of antimicrobial activity of the bleomycin solution as determined by microbial assay and is expressed in units of activity. One unit of bleomycin is equivalent in activity to 1 mg of bleomycin A2 reference standard. A2 reference standards are well known to those of ordinary skill in the art and may be purchased from a variety of commercial suppliers. […] The assay is performed as follows:
ii. Plates for potency assay: The number of plates required per assay is dependent on the number of samples to be tested. For all tests, at least 12 plates are required to establish a standard response line (see "Standard Response Line Solutions" below) and at least 3 plates are required to determine the potency of each test sample. Plates for potency testing are prepared by evenly distributing a 10 mL base layer of melted Medium 35 to an appropriate number of plastic or glass Petri dishes (20 by 100 millimeters). The layer of base agar medium is poured into each plate on a flat level surface, and a cover placed on each plate in turn; if a nonporous cover is used, the cover is left slightly ajar to prevent accumulation of condensing moisture from the hot agar base layer. After the agar hardens, the nonporous cover is seated on each plate. To prepare the seed layer, an amount of test organism suspension (see "Test Organism Suspension" below) is added to a sufficient amount of Medium 35 (which has been melted and cooled to 48° C.-50° C.) to equal a ratio of 1 mL suspension for each 100 mL of medium. The flask is swirled to obtain a homogeneous suspension, and 6 mL of suspension then added to each of the plates containing the uninoculated base agar. The seed layer is spread evenly over the agar surface, covered and allowed to harden on a flat, level surface. After the agar has hardened, 6 cylinders (stainless steel with an outside diameter of 8 millimeters (±0.1 millimeter), an inside diameter of 6 millimeters (±0.1 millimeter), and a length of 10 millimeters (±0.1 millimeter)) are placed on the inoculated agar surface so that they are at approximately 60° intervals on a 2.8 centimeter radius.
c. Test Organism Suspension: Test organism, Mycobacterium smegmatis (Cat. #607 from the American Type Culture Collection, 12301 Parklawn Dr., Rockville, Md. 20852 ) is maintained on agar slants containing 10 mL of Medium 36 as described above and transferred to a fresh slant about once a week. Slants are Incubated at 37° C. for 48 hours immediately after transfer. To prepare the test organism suspension, 3 mL of sterile USP saline T.S., is used to wash the growth from the agar slant into a 500-mL Edenmeyer flask containing 100 mL of Medium 34 and 50 gm of glass beads. The culture is agitated by rotation at a speed of 130 cycles per minute and a radius of 3.5 centimeters at 37° C. for 5 days. The test organism suspension is stored under refrigeration for a period of up to 2 weeks.
ii. Working Standard Stock Solution: The working standard of bleomycin is prepared as follows: In an atmosphere of about 10 percent relative humidity, about 100 milligrams of a fine powder of the drug is transferred to a tared weighing bottle equipped with a ground-glass stopper. The bottle is weighed and placed in a vacuum oven, with the stopper tilted on its side so that there is no closure during the drying period. The drug is dried at a temperature of 25° C. and a pressure of 5 millimeters of mercury or less for 4 hours. At the end of the drying period, the vacuum oven is filled with air that has been dried by passing it through a drying agent such as sulfuric acid or silica gel. The stopper is replaced and the weighing bottle placed in a desiccator over a desiccating agent, such as phosphorous pentoxide or silica gel, allowed to cool to room temperature, and reweighed.
(A growth-free zone around the sample is the usual read-out of agar diffusion tests.)

[2] abbreviates: 0.1M citrate buffer, 5° C., 3 mo.
The mark [3] stands for this setting: 0.1M citrate buffer, 25° C., 2 mo.
[4] abbreviates: 0.1M citrate buffer, 25° C., 3 mo.
The mark [5] stands for this setting: 0.1M citrate buffer, 40° C., 1 mo.
Setting [6] is: 0.1M citrate buffer, 40° C., 2 mo.
Setting [7] is: 0.1M citrate buffer, 40° C., 3 mo.

As for bleomycin, the “time stable, reconstituted solutions” value in data set [1] (2° C.-8° C.) is 4 weeks; in data set [1] (room temperature), 2 weeks. For the same substance, the “stability in ointment base” value in data set [1] (in dermabase or tincture of benzoin) is listed as “quite unstable”. For the same substance, the loss of activity in data set [1] (in petrolatum ointment base, in two years) is 7%. Moreover, the “time stable in solution” value in data set [1] (in saline (Dorr et al.)) was “up to seven”. Moreover, the claimed stability time in data set [1] (multidose premix in sodium chloride, under refrigeration) is on record as 100 days. The “shelf-life t90% (time required to reach 90% of the initial potency)” value in the data set on Mycobacterium smegmatis (solution in SWFI at RT, estimated from k) is about 3.44 months. Further, in the data set on Mycobacterium smegmatis (solution in SWFI at RT, from 24 month data), the “first-order degradation rate constant k” value is about 0.03058.
As for bleomycin sulfate, the “% Potency Remaining” value in the data set on Mycobacterium smegmatis (setting [2]) is 107.3%; with Mycobacterium smegmatis (setting [3]), 104.1%; with Mycobacterium smegmatis (setting [4]) it was 95.2%; in the data set with Mycobacterium smegmatis (setting [5]), 87.1%; with Mycobacterium smegmatis (setting [6]), 83.1%; in the data set with Mycobacterium smegmatis (setting [7]), 59.3%. Moreover, the “% Potency Remaining” value in the data set on Mycobacterium smegmatis (SWFI, 5° C., 3 mo.) came to 105.0%; in the data set on Mycobacterium smegmatis (SWFI, 25° C., 2 mo.) it was 105.1%; in the data set with Mycobacterium smegmatis (SWFI, 25° C., 3 mo.), 101.5%; with Mycobacterium smegmatis (SWFI, 40° C., 1 mo.), 96.1%; in the data set with Mycobacterium smegmatis (SWFI, 40° C., 2 mo.), 97.7%; in the data set on Mycobacterium smegmatis (SWFI, 40° C., 3 mo.), 63.4%. In addition, the Potency is on record as 16.51 units per vial with Mycobacterium smegmatis (setting [2]); 16.02 units per vial with Mycobacterium smegmatis (setting [3]); 14.65 units per vial in the data set on Mycobacterium smegmatis (setting [4]); 13.40 units per vial in the data set with Mycobacterium smegmatis (setting [5]); 12.79 units per vial with Mycobacterium smegmatis (setting [6]); 9.13 units per vial in the data set on Mycobacterium smegmatis (setting [7]). Besides, the Potency is 16.37 units per vial in the data set with Mycobacterium smegmatis (SWFI, 5° C., 3 mo.); 16.38 units per vial with Mycobacterium smegmatis (SWFI, 25° C., 2 mo.); 15.82 units per vial in the data set on Mycobacterium smegmatis (SWFI, 25° C., 3 mo.); 14.97 units per vial with Mycobacterium smegmatis (SWFI, 40° C., 1 mo.); 15.22 units per vial in the data set with Mycobacterium smegmatis (SWFI, 40° C., 2 mo.); 9.88 units per vial with Mycobacterium smegmatis (SWFI, 40° C., 3 mo.). Moreover, the “starting concentration (initial potency)” value with Mycobacterium smegmatis (0.1M citrate buffer) stood at 15.39 units per vial; in the data set on Mycobacterium smegmatis (SWFI) it was 15.58 units per vial. The “% of Initial Drug Remaining (Potency)” value in the data set with Mycobacterium smegmatis (0 months) is on record as 100.0%; in the data set with Mycobacterium smegmatis (24 months), 48.0%. In the data set with Mycobacterium smegmatis (citrate buffer solution, 3 months storage at 40° C.), the decrease of potency is given as about 40%. For the same substance, in the data set with Mycobacterium smegmatis (citrate solutions, 25° C. and 5° C., 3 months storage), the “decrease in stability” value is “little if any, decrease in stability”.
